Data taken from patent US11555032B2, “Isoxazole derivatives as FXR agonists and methods of use thereof” (Enanta Pharmaceuticals, Inc., priority 2019, dated 2023).
pEC50: −log10 of the molar value.

molecular target: T1, human FXR (NR1H4) (Homo sapiens, UniProt Q96RI1); assay: Human FXR (NRIH4) Assay, luciferase reporter; assay type: cell-based; settings: CHO reporter cells expressing human NR1H4, luciferase, 22 hours incubation
T1 construct: host or cells: CHO (Chinese hamster ovary) reporter cells
T1 sequence (Q96RI1 1-486): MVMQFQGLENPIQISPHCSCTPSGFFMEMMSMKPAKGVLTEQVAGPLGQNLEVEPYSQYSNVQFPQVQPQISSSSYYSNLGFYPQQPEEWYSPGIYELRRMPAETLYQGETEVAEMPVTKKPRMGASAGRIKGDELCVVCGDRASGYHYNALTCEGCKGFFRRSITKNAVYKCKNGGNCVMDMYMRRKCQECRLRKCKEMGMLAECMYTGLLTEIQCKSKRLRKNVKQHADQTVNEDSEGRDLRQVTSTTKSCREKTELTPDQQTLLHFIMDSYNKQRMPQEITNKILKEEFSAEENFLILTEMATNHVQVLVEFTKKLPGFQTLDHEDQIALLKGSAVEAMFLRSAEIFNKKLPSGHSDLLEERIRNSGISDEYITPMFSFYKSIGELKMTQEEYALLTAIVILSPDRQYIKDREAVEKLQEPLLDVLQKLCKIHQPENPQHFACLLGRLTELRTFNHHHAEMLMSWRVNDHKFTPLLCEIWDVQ
From the text: Determination of a ligand mediated Gal4 promoter driven transactivation to quantify ligand binding mediated activation of FXR. FXR Reporter Assay kit purchased from Indigo Bioscience (Catalogue number: IB00601) to determine the potency and efficacy of compound developed by Enanta that can induce FXR activation. The principle application of this reporter assay system is to quantify functional activity of human FXR. The assay utilizes non-human mammalian cells, CHO (Chinese hamster ovary) cells engineered to express human NR1H4 protein (referred to as FXR). Reporter cells also incorporate the cDNA encoding beetle luciferase which catalyzes the substrates and yields photon emission. Luminescence intensity of the reaction is quantified using a plate-reading luminometer, Envision. Reporter Cells include the luciferase reporter gene functionally linked to an FXR responsive promoter. Thus, quantifying changes in luciferase expression in the treated reporter cells provides a sensitive surrogate measure of the changes in FXR activity. EC50 and efficacy (normalize to CDCA set as 100%) is determined by XLFit. The assay is according to the manufacturer's instructions. In brief, the assay was performed in white, 96 well plates using final volume of 100 ul containing cells with different doses of compounds. Retrieve Reporter Cells from −80° C. storage. Perform a rapid thaw of the frozen cells by transferring a 10 ml volume of 37° C. cell recovery medium into the tube of frozen cells. Recap the tube of Reporter Cells and immediately place it in a 37° C. water bath for 5-10 minutes. Retrieve the tube of Reporter Cell Suspension from the water bath. Sanitize the outside surface of the tube with a 70% alcohol swab, and then transfer it into the cell culture hood. Dispense 90 μl of cell suspension into each well of the 96-well Assay Plate. Transfer the plate into 37° C. incubator, allowing the cells adherent to the bottom of the well. Dilute compounds in Dilution Plate (DP), and administrate to cells at Assay Plate (AP). DMSO content of the samples was kept at 0.2%. Cells were incubated for additional 22 hours before luciferase activities were measured. Thirty minutes before intending to quantify FXR activity, remove Detection Substrate and Detection Buffer from the refrigerator and place them in a low-light area so that they may equilibrate to room temperature. Remove the plate's lid and discard all media contents by ejecting it into an appropriate waste container. Gently tap the inverted plate onto a clean absorbent paper towel to remove residual droplets. Cells will remain tightly adhered to well bottoms. Add 100 μl of luciferase detection reagent to each well of the assay plate. Allow the assay plate to rest at room temperature for at least 5 minutes following the addition of LDR. Set the instrument (Envision) to perform a single 5 second “plate shake” prior to reading the first assay well. Read time may be 0.5 second (500 mSec) per well. EC50 and Efficacy (normalize to CDCA set as 100%) is determined by XLFit.
The efficacy was normalized to CDCA set as 100%.

| Structure (SMILES) | pEC50 |
| --- | --- |
| O=S(=O)(NC1C2CCC1CC(OCc1c(-c3ccccc3OC(F)(F)F)noc1C1CC1)C2)c1cccc2ccccc12 (stereo not drawn) [Example 9-11] | > 7.60 |
| O=S(=O)(NC1C2CCC1CC(OCc1c(-c3ccccc3OC(F)(F)F)noc1C1CC1)C2)c1ccc2ccccc2c1 (stereo not drawn) [Example 9-12] | > 7.60 |
| O=S(=O)(NC1C2CCC1CC(OCc1c(-c3ccccc3OC(F)(F)F)noc1C1CC1)C2)c1cccc2cccnc12 (stereo not drawn) [Example 9-13] | 6.30 to 7.60 |
| O=S(=O)(NC1C2CCC1CC(OCc1c(-c3ccccc3OC(F)(F)F)noc1C1CC1)C2)c1cccc2cnccc12 (stereo not drawn) [Example 9-14] | > 7.60 |
| O=S(=O)(NC1C2CCC1CC(OCc1c(-c3ccccc3OC(F)(F)F)noc1C1CC1)C2)c1cccc2ccncc12 (stereo not drawn) [Example 9-15] | > 7.60 |
| O=S(=O)(NC1C2CCC1CC(OCc1c(-c3ccccc3OC(F)(F)F)noc1C1CC1)C2)c1cccc2ncccc12 (stereo not drawn) [Example 9-16] | > 7.60 |
| CC(C)Oc1ccc(S(=O)(=O)NC2C3CCC2CC(OCc2c(-c4ccccc4OC(F)(F)F)noc2C2CC2)C3)c2ccccc12 (stereo not drawn) [Example 9-17] | 6.30 to 7.60 |
| CC(C)Oc1cc(CO)cc2sc(NC3C4CCC3CC(OCc3c(-c5ccccc5OC(F)(F)F)noc3C3CC3)C4)nc12 (stereo not drawn) [Example 10-2] | > 7.60 |
| CC(C)Oc1cc(C(C)(C)O)cc2sc(NC3C4CCC3CC(OCc3c(-c5ccccc5OC(F)(F)F)noc3C3CC3)C4)nc12 (stereo not drawn) [Example 10] | > 7.60 |
| COC(=O)c1ccc2cc(SC3C4CCC3CC(OCc3c(-c5ccccc5OC(F)(F)F)noc3C3CC3)C4)ccc2c1 [Example 11, methyl 6-(((1R,3r,5S,8s)-3-((5-cyclopropyl-3-(2-(trifluoromethoxy)phenyl)isoxazol-4-yl)methoxy)bicyclo[3.2.1]octan-8-yl)thio)-2-naphthoate] | 6.30 to 7.60 |
| O=C(O)c1ccc2cc(SC3C4CCC3CC(OCc3c(-c5ccccc5OC(F)(F)F)noc3C3CC3)C4)ccc2c1 [Example 11-2, 6-(((1R,3r,5S,8s)-3-((5-cyclopropyl-3-(2-(trifluoromethoxy)phenyl)isoxazol-4-yl)methoxy)bicyclo[3.2.1]octan-8-yl)thio)-2-naphthoic acid] | 6.30 to 7.60 |
| COC(=O)c1ccc2cc(S(=O)(=O)C3C4CCC3CC(OCc3c(-c5ccccc5OC(F)(F)F)noc3C3CC3)C4)ccc2c1 [Example 11-3, methyl 6-(((1R,3r,5S,8s)-3-((5-cyclopropyl-3-(2-(trifluoromethoxy)phenyl)isoxazol-4-yl)methoxy)bicyclo[3.2.1]octan-8-yl)sulfonyl)-2-naphthoate] | 6.30 to 7.60 |
| O=C(O)c1ccc2cc(S(=O)(=O)C3C4CCC3CC(OCc3c(-c5ccccc5OC(F)(F)F)noc3C3CC3)C4)ccc2c1 (stereo not drawn) [Example 11-4] | 6.30 to 7.60 |
| CCOC(=O)c1cccc(SC2C3CCC2CC(OCc2c(-c4ccccc4OC(F)(F)F)noc2C2CC2)C3)c1 (stereo not drawn) [Example 11-5] | < 6.30 |
| O=C(O)c1cccc(SC2C3CCC2CC(OCc2c(-c4ccccc4OC(F)(F)F)noc2C2CC2)C3)c1 (stereo not drawn) [Example 11-6] | 6.30 to 7.60 |
| CCOC(=O)c1cccc(S(=O)(=O)C2C3CCC2CC(OCc2c(-c4ccccc4OC(F)(F)F)noc2C2CC2)C3)c1 (stereo not drawn) [Example 11-7] | 6.30 to 7.60 |
| O=C(O)c1cccc(S(=O)(=O)C2C3CCC2CC(OCc2c(-c4ccccc4OC(F)(F)F)noc2C2CC2)C3)c1 (stereo not drawn) [Example 11-8] | < 6.30 |
| COC(=O)c1ccc2nc(SC3C4CCC3CC(OCc3c(-c5ccccc5OC(F)(F)F)noc3C3CC3)C4)sc2c1 (stereo not drawn) [Example 11-9] | 6.30 to 7.60 |

| Structure (SMILES) | pEC50 |
| --- | --- |
| O=C(O)c1ccc2nc(SC3C4CCC3CC(OCc3c(-c5ccccc5OC(F)(F)F)noc3C3CC3)C4)sc2c1 (stereo not drawn) [Example 11-10] | > 7.60 |
| O=C(O)c1ccc2nc(S(=O)(=O)C3C4CCC3CC(OCc3c(-c5ccccc5OC(F)(F)F)noc3C3CC3)C4)sc2c1 (stereo not drawn) [Example 11-11] | 6.30 to 7.60 |
| COC(=O)c1ccc(SC2C3CCC2CC(OCc2c(-c4ccccc4OC(F)(F)F)noc2C2CC2)C3)cc1 (stereo not drawn) [Example 11-12] | 6.30 to 7.60 |
| O=C(O)c1ccc(SC2C3CCC2CC(OCc2c(-c4ccccc4OC(F)(F)F)noc2C2CC2)C3)cc1 (stereo not drawn) [Example 11-13] | 6.30 to 7.60 |
| COC(=O)c1ccc(S(=O)(=O)C2C3CCC2CC(OCc2c(-c4ccccc4OC(F)(F)F)noc2C2CC2)C3)cc1 (stereo not drawn) [Example 11-14] | 6.30 to 7.60 |
| O=C(O)c1ccc(S(=O)(=O)C2C3CCC2CC(OCc2c(-c4ccccc4OC(F)(F)F)noc2C2CC2)C3)cc1 (stereo not drawn) [Example 11-15] | 6.30 to 7.60 |
| CCOC(=O)c1cc(F)c2nc(SC3C4CCC3CC(OCc3c(-c5ccccc5OC(F)(F)F)noc3C3CC3)C4)sc2c1 (stereo not drawn) [Example 11-16] | 6.30 to 7.60 |
| O=C(O)c1cc(F)c2nc(SC3C4CCC3CC(OCc3c(-c5ccccc5OC(F)(F)F)noc3C3CC3)C4)sc2c1 (stereo not drawn) [Example 11-17] | > 7.60 |
| CCOC(=O)c1cc(F)c2nc(S(=O)(=O)C3C4CCC3CC(OCc3c(-c5ccccc5OC(F)(F)F)noc3C3CC3)C4)sc2c1 (stereo not drawn) [Example 11-18] | < 6.30 |
| O=C(O)c1cccc2nc(SC3C4CCC3CC(OCc3c(-c5ccccc5OC(F)(F)F)noc3C3CC3)C4)cnc12 [Example 12, 2-(((1R,3r,5S,8s)-3-((5-cyclopropyl-3-(2-(trifluoromethoxy)phenyl)isoxazol-4-yl)methoxy)bicyclo[3.2.1]octan-8-yl)thio)quinoxaline-5-carboxylic acid] | > 7.60 |
| N#Cc1cccc2ncc(NC3C4CCC3CC(OCc3c(-c5ccccc5OC(F)(F)F)noc3C3CC3)C4)nc12 (stereo not drawn) [Example 13-2] | < 6.30 |
| FC(F)(F)Oc1ccccc1-c1noc(C2CC2)c1CO[C@H]1C[C@H]2CC[C@@H](C1)[C@@H]2Nc1cnc2c(-c3nnn[nH]3)cccc2n1 [Example 13-3, N-((1R,3r,5S,8s)-3-((5-cyclopropyl-3-(2-(trifluoromethoxy)phenyl)isoxazol-4-yl)methoxy)bicyclo[3.2.1]octan-8-yl)-5-(1H-tetrazol-5-yl)quinoxalin-2-amine] | > 7.60 |
| FC(F)(F)Oc1ccccc1-c1noc(C2CC2)c1COC1CC2CCC(C1)C2Nc1nc2c(C3CC3)cc(-c3nnn[nH]3)cc2s1 (stereo not drawn) [Example 13-5] | > 7.60 |
| CC(C)Oc1cc(C#N)cc2sc(NC3C4CCC3CC(OCc3c(-c5ccccc5OC(F)(F)F)noc3C3CC3)C4)nc12 (stereo not drawn) [Example 13-6] | > 7.60 |
| CC(C)Oc1cc(-c2nnn[nH]2)cc2sc(NC3C4CCC3CC(OCc3c(-c5ccccc5OC(F)(F)F)noc3C3CC3)C4)nc12 (stereo not drawn) [Example 13-7] | > 7.60 |
| CCOC(=O)c1cc(F)c2nc(SC3C4CCC3CC(NCc3c(-c5ccccc5OC(F)(F)F)noc3C3CC3)C4)sc2c1 [Example 14, ethyl 2-(((1R,3r,5S,8s)-3-(((5-cyclopropyl-3-(2-(trifluoromethoxy)phenyl)isoxazol-4-yl)methyl)amino)bicyclo[3.2.1]octan-8-yl)thio)-4-fluorobenzo[d]thiazole-6-carboxylate] | < 6.30 |
| O=C(O)c1cc(F)c2nc(S[C@@H]3[C@@H]4CC[C@H]3C[C@@H](NCc3c(-c5ccccc5OC(F)(F)F)noc3C3CC3)C4)sc2c1 [Example 14-2, 2-(((1R,3r,5S,8s)-3-(((5-cyclopropyl-3-(2-(trifluoromethoxy)phenyl)isoxazol-4-yl)methyl)amino)bicyclo[3.2.1]octan-8-yl)thio)-4-fluorobenzo[d]thiazole-6-carboxylic acid] | 6.30 to 7.60 |
| COC(=O)c1ccc2nc(SC3C4CCC3CC(NCc3c(-c5ccccc5OC(F)(F)F)noc3C3CC3)C4)[nH]c2c1 (stereo not drawn) [Example 14-3] | 6.30 to 7.60 |
